Legend:
chaperone assemblies = assay: Kinetics of chaperone-zelavespib assembly taken from Phase 1 clearance; set-up: species or system mouse; details: in vivo, fast off-rate
Method: Figure 1 Biodistribution of zelavespib in MDA-MB-468 tumor-bearing mice. (a) Biodistribution of [^124I]-Zelavespib in MDA-MB-468 tumors, organs, tissues, and plasma as per ref. [32]. Data are presented as means ± s.d., five mice per time point. Curves for blood, lung, heart, muscle, bone, and brain were fitted using a one-phase decay equation, and kinetics of zelavespib clearance were determined. Tumor curve was fitted to a two-phase exponential decay. k, kfast, and kslow are the rate constants. Half-life (T1/2) is computed as ln(2)/k. […] (b) Illustrative schematic showing the distinct binding kinetics of zelavespib to epichaperomes (slow off-rate) and to chaperone assemblies (fast off-rate). The tumor pharmacokinetics profile recorded in the Phase 2 interval may represent a direct reflection of the in vivo kinetics of target–drug unbinding. koff, kinetic rate constant for dissociation of an epichaperome-zelavespib assembly. Rt, retention time. […]

epichaperome = assay: Target occupancy by zelavespib using tracer [131I]-PU-AD and gamma counting in MDA-MB-468 tumors; type: in vivo, mouse; details: for target occupancy: MDA-MB-468 tumor, 50 mg/kg; for target occupancy, accounting for background signal: background radioactivity of normal tissues (heart) subtracted
Method: MDA-MB-468 (RRID:CVCL_0419) tumor xenografts were established on the forelimbs of female athymic nude mice (Hsd:Athymic Nude-Foxn1^nu; Envigo; 5 weeks old; RRID:MGI:5652489) by subcutaneous (s.c.) injection of 7 × 10^6 cells in a 300 µL cell suspension of a 1:1 v/v mixture of PBS with reconstituted basement membrane (BD Matrigel^TM, Collaborative Biomedical Products Inc., Bedford, MA, USA). Tumor progression was monitored using vernier calipers. For biodistribution studies, female athymic nude mice with MDA-MB-468 tumor xenografts (~200–300 mm^3) on the forelimbs were injected intravenously in the tail vein with zelavespib (50 mg/kg (PU-H71.HCl formulated in 10 mM Phosphate Buffer, pH = ~6.4)) at different time points (0 (co-injection), 6, 24, and 48 h) prior to tracer administration. At designated time points post-drug administration, mice were injected intravenously in the tail vein with 0.93–1.1 MBq (25–50 µCi) of [^131I]-PU-AD in 200 µL of 5% ethanol in saline. The activity in the syringe before and after administration was assayed in a dose calibrator (CRC-15R; Capintec, Florham Park, NJ, USA) to determine by difference the actual activity administered to each animal. Animals were euthanized by CO2 asphyxiation at 24 h post-administration of the radiolabeled [^131I]-PU-AD tracer, and organs, including tumor(s), were harvested and weighed. ^131I was measured in a 2480 WIZARD automatic gamma counter (PerkinElmer, Waltham, MA, USA) using a 260–430 keV energy window. Count data were background- and decay-corrected to the time of injection, and the percent injected dose per gram (%ID/g) for each tissue sample was calculated using a measured ^131I calibration factor to convert count rate to activity and the activity was normalized to the activity injected and the weighed mass of the sample to yield the activity concentration in %ID/g.
The drug could be trapped in non-tumor areas (i.e., stroma or necrotic tissue) or be intracellular but not target-bound. To test this notion and determine the percentile target occupied by each of these intratumoral concentrations of zelavespib, we performed studies in which tracer amounts (that is, non-pharmacologically perturbing amounts) of the radiolabeled epichaperome ligand [^131I]-PU-AD (~6 ng/g which is ~1/10,000 of the therapeutic zelavespib amount) were administered to mice intravenously 24 h prior to tumor zelavespib measurements (Figure 2a). The ^131I isotope has a half-life of 8 days, making it suitable for measurements of drugs with an extended tumor retention profile, such as that observed for zelavespib. It emits γ radiation and β particles; thus, γ-counting can be applied to detect and quantify the radioactive signal in tumors and tissues upon mouse sacrifice. Because both zelavespib and [^131I]-PU-AD bind to the same target, the epichaperome, the more zelavespib that is present in the tumor and is target-bound, the lower the radioactivity signal is in the tumor.
Figure 3 Relationship between molar concentration and target engagement in MDA-MB-468 tumor-bearing mice. (a) Tumor molar concentrations of zelavespib experimentally determined by LC–MS/MS upon administration of single-dose 50 mg/kg zelavespib and sacrificing the mice at 30 h, 48 h, and 72 h post-zelavespib administration (n = 5 mice per time-point). Data are presented as means ± s.e.m., n = 5, one-way ANOVA with Dunnett’s post hoc. Controls: PU-24h, mice were injected 50 mg/kg zelavespib, and tumor concentrations of the drug were determined at 24 h post-injection using LC–MS/MS. Vehicle, mice were injected vehicle only. (b) Target engagement by zelavespib was determined by co-injection of zelavespib with a trace amount of [^131I]-PU-AD. Zelavespib was administered 6, 24, and 48 h prior to [^131I]-PU-AD. […]

SMILES: CC(C)NCCCn1c(Sc2cc3c(cc2I)OCO3)nc2c(N)ncnc21 [zelavespib]
- T1/2, chaperone-zelavespib assembly (chaperone assemblies): ~ 3 h
- k Phase 1, chaperone-zelavespib assembly (chaperone assemblies): ~ 0.2 h^-1
- target occupancy (epichaperome; 30 h post single 50 mg/kg i.v.): 38.8%
- target occupancy, accounting for background signal (epichaperome; 30 h post single 50 mg/kg i.v.): 41.5%
- target occupancy (epichaperome; 48 h post single 50 mg/kg i.v.): 24.9%
- target occupancy, accounting for background signal (epichaperome; 48 h post single 50 mg/kg i.v.): 22.4%
- target occupancy, accounting for background signal (epichaperome; 72 h post single 50 mg/kg i.v.): 3.5%
- remaining intratumoral zelavespib that is target-bound (epichaperome; 72 h post-injection): about 50%
